Assays:
PDE10 = PDE10 (Homo sapiens (Human), UniProt Q9Y233); test: Phosphodiesterase (PDE) 10 assay with fluorescent substrate (IMAP, fluorescence polarization); assay type: biochemical; details: labeled cAMP 30 nM
Protocol: (§1) The IMAP system (Molecular Device) using fluorescence polarization (FP) as detection principle was used to measure enzyme activity. A fluorescent labeled cAMP was used as substrate for the reaction, generating a labeled AMP. The fluorescent AMP binds specifically to the large M(III)-based nano-particles which reduces the rotational speed of the substrate and thus increases its polarization. Detailed Method: The inhibition of PDE 2A or 10 enzyme activity was assessed using IMAP-Phosphodiesterase-cAMP fluorescence labeled substrate (Molecular Devices, Order No. R7506), IMAP TR-FRET screening express (Molecular Devices, Order No. R8160, the TR-FRET component will not be used) and PDE 2A or PDE10 protein expressed upon baculovirus infection in SF9 cells. […] The cells were collected by centrifugation and the pellet frozen in liquid nitrogen before it was resuspended in PBS containing 1% Triton X-100 and protease inhibitors. After 45 min incubation on ice, the cell debris was removed by centrifugation (13.000 rpm, 30 min). […] All reactions were performed in 384 well plates, Perkin Elmer black optiplates and IMAP reaction buffer with 0.1% Tween20 (kit component) Compounds were serial diluted in DMSO. […] Reaction is stopped by adding of 60 μl binding buffer for FP/cAMP (kit component).

PDE 2A = PDE 2A (Homo sapiens (Human), UniProt O00408); test: Phosphodiesterase (PDE) 2A assay with fluorescent substrate (IMAP, fluorescence polarization); assay type: biochemical; details: labeled cAMP 30 nM, read-out: PDE2 IC50
Protocol: as §1

PDE 2A, sequence (O00408 whole entry, species assumed): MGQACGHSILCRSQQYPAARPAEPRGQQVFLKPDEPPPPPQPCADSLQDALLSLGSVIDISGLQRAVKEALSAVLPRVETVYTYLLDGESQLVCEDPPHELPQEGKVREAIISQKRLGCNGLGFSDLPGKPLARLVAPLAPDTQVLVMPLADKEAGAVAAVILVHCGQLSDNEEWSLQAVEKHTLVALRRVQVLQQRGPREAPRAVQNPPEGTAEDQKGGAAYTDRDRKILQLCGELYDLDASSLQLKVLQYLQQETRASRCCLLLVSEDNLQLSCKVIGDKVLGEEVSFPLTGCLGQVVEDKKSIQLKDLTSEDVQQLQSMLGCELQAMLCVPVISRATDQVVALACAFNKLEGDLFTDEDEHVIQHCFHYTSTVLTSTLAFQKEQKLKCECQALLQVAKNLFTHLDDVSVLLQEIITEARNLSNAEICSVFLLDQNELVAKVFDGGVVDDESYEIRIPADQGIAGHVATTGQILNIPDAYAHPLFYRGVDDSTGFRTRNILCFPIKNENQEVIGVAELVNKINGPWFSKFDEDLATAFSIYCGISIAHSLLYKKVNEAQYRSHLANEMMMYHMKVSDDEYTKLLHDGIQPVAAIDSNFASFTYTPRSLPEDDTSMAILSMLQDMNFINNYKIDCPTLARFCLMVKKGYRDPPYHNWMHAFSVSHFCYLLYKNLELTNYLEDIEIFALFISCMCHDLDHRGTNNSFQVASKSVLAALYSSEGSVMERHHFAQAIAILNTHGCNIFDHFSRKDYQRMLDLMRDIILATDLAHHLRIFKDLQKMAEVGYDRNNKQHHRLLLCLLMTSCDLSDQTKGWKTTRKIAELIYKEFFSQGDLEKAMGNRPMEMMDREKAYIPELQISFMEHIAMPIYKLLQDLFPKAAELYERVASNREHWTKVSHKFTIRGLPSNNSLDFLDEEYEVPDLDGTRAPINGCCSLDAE
PDE10, sequence (Q9Y233 whole entry): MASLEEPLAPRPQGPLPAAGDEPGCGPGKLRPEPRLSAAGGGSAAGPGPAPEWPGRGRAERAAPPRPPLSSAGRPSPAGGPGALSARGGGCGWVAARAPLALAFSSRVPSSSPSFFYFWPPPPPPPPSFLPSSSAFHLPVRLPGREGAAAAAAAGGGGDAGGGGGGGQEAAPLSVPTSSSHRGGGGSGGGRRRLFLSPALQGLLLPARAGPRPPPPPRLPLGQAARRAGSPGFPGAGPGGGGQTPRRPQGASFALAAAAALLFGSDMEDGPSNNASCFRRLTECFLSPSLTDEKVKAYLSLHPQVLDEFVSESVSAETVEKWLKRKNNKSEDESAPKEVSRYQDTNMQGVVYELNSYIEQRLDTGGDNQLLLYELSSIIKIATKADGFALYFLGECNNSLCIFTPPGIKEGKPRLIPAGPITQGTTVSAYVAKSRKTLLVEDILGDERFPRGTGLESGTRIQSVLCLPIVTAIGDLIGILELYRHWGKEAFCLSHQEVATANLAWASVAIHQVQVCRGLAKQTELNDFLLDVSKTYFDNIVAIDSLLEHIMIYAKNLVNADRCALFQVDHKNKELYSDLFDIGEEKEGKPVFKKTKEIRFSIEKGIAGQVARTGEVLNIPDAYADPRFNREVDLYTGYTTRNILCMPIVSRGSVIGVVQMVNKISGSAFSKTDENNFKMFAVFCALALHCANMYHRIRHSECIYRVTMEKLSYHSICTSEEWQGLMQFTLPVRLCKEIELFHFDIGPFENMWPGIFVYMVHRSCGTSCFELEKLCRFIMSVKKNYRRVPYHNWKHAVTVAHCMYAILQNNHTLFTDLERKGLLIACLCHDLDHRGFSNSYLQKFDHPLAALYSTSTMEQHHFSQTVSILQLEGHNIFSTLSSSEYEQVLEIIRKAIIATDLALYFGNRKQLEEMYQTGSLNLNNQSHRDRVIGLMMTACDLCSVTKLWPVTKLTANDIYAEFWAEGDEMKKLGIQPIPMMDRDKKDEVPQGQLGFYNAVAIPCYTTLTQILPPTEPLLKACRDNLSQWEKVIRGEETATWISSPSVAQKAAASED

SMILES	IC50 (PDE10) [µM]	IC50 (PDE 2A) [µM]
Cc1nn2cc(C3CC3)cnc2c1C(=O)NC1(c2ccc(C(F)(F)F)cn2)CCOCC1O (racemic) [Example 63]	> 10	0.124
O=C(NC1(c2ccc(C(F)(F)F)cc2)CCOCC1O)c1cnn2cc(C3CC3)cnc12 (stereo not shown) [Example 60]	> 10	0.022

— patent US10875867B2, “Cyclic ether derivatives of pyrazolo[1,5-a]pyrimidine-3-carboxyamide” (Boehringer Ingelheim International GmbH, priority 2015, dated 2020)
